Assay results: patent US20110165232A1, “Use of Opioid Antagonists for the Preparation of a Medicament in the Treatment of Retinal Degenerative Diseases” (AK KIMYA ITHALAT-IHRACAT VE SANAYII ANONIM SIRKETI, priority 2008, published 2011)

What was measured:
[1] = system: age related macular degeneration; assay: Case reports: low dose naltrexone regimen in patients with age related macular degeneration; type: in vivo, human; conditions: elderly person with age related macular degeneration, 4.5 mg per day at bedtime
Excerpt: An […] has had age related macular degeneration for the last 11 years of […] life, experiencing progressive blurring in the center of […] vision. The degeneration led to loss of central vision […] from many daily activities. It […] very difficult to lead an independent life.
An […] has had age related macular degeneration for the last 10 years […]. […] experienced a loss of central vision […] to differentiate the colors of the surrounding objects and letters in the newspapers. […] […] began to differentiate the colors of the objects shown to […]; […] started to differentiate the big printed letters in the newspapers.

[2] = system: beta-endorphins; conditions: normal volunteers, LDN at bedtime, in the following days; cited from earlier work
[3] = system: Met-enkephalin; conditions: animal research, Ref 7; cited from earlier work
[4] = system: human tumors; conditions: laboratory studies, low dose naltrexone methodology; cited from earlier work

O=C1CC[C@@]2(O)[C@H]3Cc4ccc(O)c5c4[C@@]2(CCN3CC2CC2)[C@H]1O5 [naltrexone]
quality of vision [1]: the quality of their vision started to improve
time after initiation of therapy until vision began to improve [1]: Approximately 50 days
quality of vision ([1]; listed as low dose naltrexone): improvement in the quality of their vision
time after initiation of therapy until vision began to improve ([1]; listed as low dose naltrexone): 50 to 60 days
levels of beta-endorphins in blood [2]: higher levels of beta-endorphins in their blood
Met-enkephalin levels [3]: marked increase in Met-enkephalin levels
inhibition of human tumors [4]: inhibition of different human tumors
